Patent EP4786455A1, “NOVEL PHTHALAZINE DERIVATIVE COMPOUND AS SOS1 INHIBITOR, AND USE THEREOF” (Hanmi Pharmaceutical Co., Ltd., priority 2023, dated 2025)

Biological target: T1, SOS1 (Homo sapiens, UniProt Q07889)
T1 construct: comprising amino acid residues 564-1049 corresponding to the catalytic domain; purchased Reaction Biology Corp. SOS1-Strep #MSC-11-502; GST-KRAS G12C #MSC-11-538
T1 sequence (Q07889 564-1049): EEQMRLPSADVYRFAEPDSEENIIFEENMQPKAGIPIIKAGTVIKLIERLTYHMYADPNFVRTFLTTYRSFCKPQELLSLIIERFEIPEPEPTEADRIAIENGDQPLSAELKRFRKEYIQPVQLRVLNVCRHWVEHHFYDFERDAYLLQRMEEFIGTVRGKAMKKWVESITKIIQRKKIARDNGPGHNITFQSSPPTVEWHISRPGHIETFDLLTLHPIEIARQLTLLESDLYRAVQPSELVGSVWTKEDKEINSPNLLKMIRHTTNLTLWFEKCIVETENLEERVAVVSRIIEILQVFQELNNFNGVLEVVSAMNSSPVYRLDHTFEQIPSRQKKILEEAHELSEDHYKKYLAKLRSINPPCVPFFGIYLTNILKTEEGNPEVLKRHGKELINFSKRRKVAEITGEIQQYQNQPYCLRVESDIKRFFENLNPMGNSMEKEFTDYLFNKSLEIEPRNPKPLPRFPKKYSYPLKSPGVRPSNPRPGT
Assay: Inhibitory activity on SOS1-mediated GTP exchange (HTRF / TR-FRET nucleotide exchange assay on KRAS G12C)
Assay type: biochemical
Conditions: SOS1-mediated GTP exchange on GST-KRAS G12C (residues 2-169); SOS1-Strep catalytic domain (564-1049); GTP-DY-647P1; HTRF signal; 5-point concentration series up to 1,000 nM
Method: To evaluate whether the SOS1-mediated nucleotide exchange activity on KRAS G12C is inhibited by the compounds of the above Examples, a homogeneous time-resolved fluorescence (homogenous time-resolved fluorescence, HTRF) assay was performed using GST-KRAS G12C (#MSC-11-538) and SOS1-Strep (#MSC-11-502) obtained from Reaction Biology Corp. (USA, MA). The activity of SOS1 was determined by measuring the amount of GTP bound to the KRAS G12C protein based on the principle of time-resolved fluorescence resonance energy transfer (time-resolved fluorescence energy transfer, TR-FRET). Terbium (Terbium) conjugated to an anti-GST antibody bound to the GST tag of the GST-KRAS G12C protein served as a FRET donor, and GTP bound to the KRAS G12C protein was labeled with the fluorophore DY-647P1, serving as a FRET acceptor. Based on this principle, a higher HTRF or FRET signal is observed as more GTP is bound to KRAS G12C due to the SOS1-mediated exchange reaction in the assay.
In summary, a GST-labeled KRAS G12C protein (comprising amino acid residues 2-169), a […] SOS1 protein (comprising amino acid residues 564-1049 corresponding to the catalytic domain), an anti-GST antibody, labeled nucleotide GTP-DY-647P1, and the test compound were mixed in a buffer solution containing 20 mM HEPES (pH 7.4), 150 mM NaCl, 5 mM MgCl2, 1 mM dithiothreitol (DTT), 0.05% BSA, and 0.0025% NP40. The mixture was dispensed into a 384-well plate, incubated at room temperature, and the HTRF signal was measured using a PHERAstar microplate reader (BMG Labtech). The excitation wavelength was 337 nm, and emission was measured at 620/665 nm. A background signal value was determined from fluorescence measurements obtained in the absence of SOS1 protein and was subtracted from all measured HTRF values. A control value was determined from fluorescence measurements obtained in the absence of the synthesized compounds and was set as the 100% reference. Fluorescence signals were measured at compound concentrations of 0.1, 1, 10, 100, and 1,000 nM (5 points, 10-fold) or 1.6, 8, 40, 200, and 1,000 nM (5 points, 5-fold). The 50% inhibitory concentration (IC50) values of the compounds were calculated using GraphPad Prism.
IC50 values were denoted as +++ when 50 nM or less, ++ when greater than 50 nM and 100 nM or less, and + when greater than 100 nM.

IC50	SMILES
≤ 50 nM	CNc1cc2c(N[C@H](C)c3cccc(C(F)(F)CO)c3)nnc(C)c2cc1C(=O)N1CCOCC1 [Example 27, (R)-(1-((1-(3-(1,1-difluoro-2-hydroxyethyl)phenyl)ethyl)amino)-4-methyl-7-(methylamino)phthalazin-6-yl)(morpholino)methanone]
≤ 50 nM	CNc1cc2c(N[C@H](C)c3cccc(C#N)c3C)nnc(C)c2cc1C(=O)N1CCCC1 [Example 14, (R)-2-methyl-3-(1-((4-methyl-7-(methylamino)-6-(pyrrolidine-1-carbonyl)phthalazin-1-yl)amino)ethyl)benzonitrile]
≤ 50 nM	CNc1cc2c(N[C@H](C)c3cccc(C#N)c3C)nnc(C)c2cc1C(=O)N1CCN(C)CC1 [Example 8, (R)-2-methyl-3-(1-((4-methyl-7-(methylamino)-6-(4-methylpiperazine-1-carbonyl)phthalazin-1-yl)amino)ethyl)benzonitrile]
≤ 50 nM	CNc1cc2c(N[C@H](C)c3cccc(C#N)c3C)nnc(C)c2cc1C(=O)N1CC(F)C1 [Example 17, (R)-3-(1-((6-(3-fluoroazetidine-1-carbonyl)-4-methyl-7-(methylamino)phthalazin-1-yl)amino)ethyl)-2-methylbenzonitrile]
≤ 50 nM	CNc1cc2c(N[C@H](C)c3cc(N)cc(C(F)F)c3F)nnc(C)c2cc1C(=O)N1CCOCC1 [Example 26, (R)-(1-((1-(5-amino-3-(difluoromethyl)-2-fluorophenyl)ethyl)amino)-4-methyl-7-(methylamino)phthalazin-6-yl)(morpholino)methanone]
≤ 50 nM	CNc1cc2c(N[C@H](C)c3cccc(C#N)c3C)nnc(C)c2cc1C(=O)N(C)C1CCOCC1 [Example 6, (R)-1-((1-(3-cyano-2-methylphenyl)ethyl)amino)-N,4-dimethyl-7-(methylamino)-N-(tetrahydro-2H-pyran-4-yl)phthalazine-6-carboxamide]
≤ 50 nM	COc1cc2c(N[C@H](C)c3cccc(C#N)c3C)nnc(C)c2cc1C(=O)N1CCOCC1 [Example 32, (R)-3-(1-((7-methoxy-4-methyl-6-(morpholine-4-carbonyl)phthalazin-1-yl)amino)ethyl)-2-methylbenzonitrile]
≤ 50 nM	CNc1cc2c(N[C@H](C)c3cccc(C#N)c3C)nnc(C)c2cc1CN1CCOCC1 [Example 29, (R)-2-methyl-3-(1-((4-methyl-7-(methylamino)-6-(morpholinomethyl)phthalazin-1-yl)amino)ethyl)benzonitrile]
≤ 50 nM	CNc1cc2c(N[C@H](C)c3cccc(C#N)c3C)nnc(C)c2cc1C(=O)N1CC2(COC2)C1 [Example 11, (R)-2-methyl-3-(1-((4-methyl-7-(methylamino)-6-(2-oxa-6-azaspiro[3.3]heptane-6-carbonyl)phthalazin-1-yl)amino)ethyl)benzonitrile]
≤ 50 nM	Cc1c(C#N)cccc1[C@@H](C)Nc1nnc(C)c2cc(CN3CCOCC3)c(NC3CCCC3)cc12 [Example 30, (R)-3-(1-((7-(cyclopentylamino)-4-methyl-6-(morpholinomethyl)phthalazin-1-yl)amino)ethyl)-2-methylbenzonitrile]
≤ 50 nM	CCN1CCN(C(=O)c2cc3c(C)nnc(N[C@H](C)c4cccc(C#N)c4C)c3cc2NC)CC1 [Example 12, (R)-3-(1-((6-(4-ethylpiperazine-1-carbonyl)-4-methyl-7-(methylamino)phthalazin-1-yl)amino)ethyl)-2-methylbenzonitrile]
≤ 50 nM	CNc1cc2c(N[C@H](C)c3cccc(C#N)c3C)nnc(C)c2cc1C(=O)N1CCS(=O)(=O)CC1 [Example 4, (R)-3-(1-((6-(1,1-dioxothiomorpholine-4-carbonyl)-4-methyl-7-(methylamino)phthalazin-1-yl)amino)ethyl)-2-methylbenzonitrile]
≤ 50 nM	CNc1cc2c(N[C@H](C)c3cccc(C#N)c3C)nnc(C)c2cc1C(=O)N1CCCCC1 [Example 15, (R)-2-methyl-3-(1-((4-methyl-7-(methylamino)-6-(piperidine-1-carbonyl)phthalazin-1-yl)amino)ethyl)benzonitrile]
≤ 50 nM	Cc1c(C#N)cccc1[C@@H](C)Nc1nnc(C)c2cc(C(=O)N3CCOCC3)c(NC3CCCC3)cc12 [Example 33]
≤ 50 nM	CNc1cc2c(N[C@H](C)c3cccc(C#N)c3C)nnc(C)c2cc1C(=O)NC1CCOCC1 [Example 5, (R)-1-((1-(3-cyano-2-methylphenyl)ethyl)amino)-4-methyl-7-(methylamino)-N-(tetrahydro-2H-pyran-4-yl)phthalazine-6-carboxamide]
≤ 50 nM	CNc1cc2c(N[C@H](C)c3cccc(C#N)c3C)nnc(C)c2cc1C(=O)N1CCNCC1 [Example 9, (R)-2-methyl-3-(1-((4-methyl-7-(methylamino)-6-(piperazine-1-carbonyl)phthalazin-1-yl)amino)ethyl)benzonitrile]
≤ 50 nM	CNc1cc2c(N[C@H](C)c3cccc(C#N)c3C)nnc(C)c2cc1C(=O)N1CCOCC1 [Example 1, (R)-2-methyl-3-(1-((4-methyl-7-(methylamino)-6-(morpholine-4-carbonyl)phthalazin-1-yl)amino)ethyl)benzonitrile]
≤ 50 nM	CNc1cc2c(N[C@H](C)c3cccc(C#N)c3C)nnc(C)c2cc1C(=O)N1CCSCC1 [Example 2, (R)-2-methyl-3-(1-((4-methyl-7-(methylamino)-6-(thiomorpholine-4-carbonyl)phthalazin-1-yl)amino)ethyl)benzonitrile]
≤ 50 nM	COc1cc2c(N[C@H](C)c3cccc(C#N)c3C)nnc(C)c2cc1CN1CCOCC1 [Example 28, (R)-3-(1-((7-methoxy-4-methyl-6-(morpholinomethyl)phthalazin-1-yl)amino)ethyl)-2-methylbenzonitrile]
≤ 50 nM	CNc1cc2c(N[C@H](C)c3cccc(C#N)c3C)nnc(C)c2cc1C(=O)N1CCC(N2CCOCC2)CC1 [Example 22, (R)-2-methyl-3-(1-((4-methyl-7-(methylamino)-6-(4-morpholinopiperidin-1-carbonyl)phthalazin-1-yl)amino)ethyl)benzonitrile]
≤ 50 nM	CNc1cc2c(N[C@H](C)c3cccc(C#N)c3C)nnc(C)c2cc1C(=O)N1CCC2(CC2)C1 [Example 18, (R)-2-methyl-3-(1-((4-methyl-7-(methylamino)-6-(5-azaspiro[2.4]heptane-5-carbonyl)phthalazin-1-yl)amino)ethyl)benzonitrile]
